In US20210177889A1, “GASEOUS PHARMACEUTICAL COMPOSITION FOR HYPERTENSION THERAPY” (KEIO UNIVERSITY, priority 2019, published 2021):

What was measured:
autonomic nerve function = assay: Autonomic nerve function by frequency analysis in spontaneous hypertension rats; type: in vivo, rat (SHR/Izumo); conditions: SHR
Procedure: Heart rate variability was analyzed using telemetry system software (Ponemah Ver. 6.3, Data Science International). Frequency domain analysis (sampling rate of 500 Hz; very low frequency (VLF) (0.05-0.25 Hz); low frequency (LF) (0.25-1.0 Hz); and high frequency (HF) (1.0-3.0 Hz)) was carried out using the arterial pressure waveform data of the first one minute of every five minutes (about 300 to 400 beats). In heart rate variability analysis, data recorded in the first 15 minutes was excluded, and effective data in the first one minute out of a block of every 5 minutes was used. LF and HF each reflected the sympathetic nerve component and the parasympathetic nerve component (Akselrod, S. et al. Power spectrum analysis of heart rate fluctuation: a quantitative probe of beat-to-beat cardiovascular control. Science 213, 220-222 (1981); Pagani, M. et al. Power spectral analysis of heart rate and arterial pressure variabilities as a marker of sympatho-vagal interaction in man and conscious dog. Circ. Res. 59, 178-193 (1986); and Montano, N. et al. Power spectrum analysis of heart rate variability to assess the changes in sympathovagal balance during graded orthostatic tilt. Circulation 90, 1826-1831 (1994)). LF/HF ratio and HF/(LF+HF) were each handled as indicators of sympathetic nerve activity and parasympathetic nerve activity (Heart rate variability: standards of measurement, physiological interpretation and clinical use. Task Force of the European Society of Cardiology and the North American Society of Pacing and Electrophysiology. Circulation 93, 1043-1065 (1996); and Pagani, M. et al. Relationship between spectral components of cardiovascular variabilities and direct measures of muscle sympathetic nerve activity in humans. Circulation 95, 1441-1448 (1997)).
H2 gas (1.3% H2+21% O2+77.7 N2) and control gas (21% O2+79% N2) were filled into gas cylinders in advance at a factory. The H2 group and the control group were allowed to inhale the H2 gas and the control gas that were mixed in advance. […]

[1] = system: hypertension attributed to 5/6 nephrectomy; assay: Continuous telemetry blood pressure monitoring after 5/6 nephrectomy with daily H2 inhalation; type: in vivo, Lewis rat
Source text: In order to monitor continuous blood pressure fluctuation, telemetry transmitters were implanted into rats. Specifically, rats were anesthetized with isoflurane, and the left groin was disinfected with 1% chlorhexidine. An incision of about 1.5 cm was made in the left groin, the left femoral artery was exposed, and a telemetry transmitter (HD-S10, Physiotel HD Telemetry, Data Science International) catheter was inserted into the left femoral artery. The tip of the transmitter catheter was placed in the abdominal aorta caudally from the branch of the renal artery. The transmitter body was inserted into a subcutaneous pocket made in the left lower back, and the skin was sutured. All surgical intervention was performed under sterile conditions. In order to elicit renal hypertension, 5/6 nephrectomy was carried out with slight modification to previously described methods (Nephrology (Carlton) 19, 552-561; 10.1111/nep.12279 (2014); J. Am. Soc. Nephrol. 4, 2023-2031 (1994); and Kidney Int. 40, 29-34; 10.1038/ki.1991.175 (1991).). Briefly, rats were anesthetized by isoflurane inhalation (induction at 4% and maintenance at 1.5%), and upper midline laparotomy of about 4 cm was carried out. Surgical operation was performed under a microscope, the left renal artery branch was identified, and selectively ligated with 7-0 silk at a position as close as possible to the left kidney so that macroscopic infarction is caused in about ⅔ of the left renal cortex. In the first pilot research (FIGS. 1a and 2), a high-temperature cautery pen (AA11, Bovie, Tenn., U.S.A.) was used to add the resection of the infarcted portion of the kidney. Subsequently, the right renal artery, the renal vein, and the urinary duct was ligated with 4-0 silk, and the right kidney were resected. The abdominal wall and the skin were closed with a 4-0 nylon thread. The anesthetic time was uniformly 30 minutes in all rats. H2 gas (1.3% H2+21% O2+77.7 N2) and control gas (21% O2+79% N2) were filled into gas cylinders in advance at a factory. The H2 group and the control group were allowed to inhale the H2 gas and the control gas that were mixed in advance. All animals were allowed to inhale the assigned gas at 10 L/minute for 1 hour in an established anesthesia box, and inhaled for an additional three minutes to purge the box (i.e. a total of 63 minutes). In the nephrectomy model and SHR, gas inhalation was repeated every day for 4 weeks and 2 weeks, respectively. In order to investigate the time course necessary for H2 gas to exert therapeutic effect, rats implanted with telemetry (8 weeks-old; 3 for each group) were subjected to 5/6 nephrectomy, and the blood pressure fluctuation was continuously monitored (FIG. 1b). In the first gas inhalation immediately after 5/6 nephrectomy, the blood pressure of the H2 gas group was reduced compared to the control group (117.4±1.8 mmHg vs. 125.6±4.7 mmHg, P=0.04). […] Before the start of inhalation on Day 2, there was no difference in blood pressure between the two groups. […] To examine the anti-hypertensive effect of H2 in more detail, chronic and continuous monitoring of blood pressure using a non-invasive method with a wireless implantable telemetry system (FIG. 5a) was conducted. Gas inhalation was started on the day of 5/6 nephrectomy and continued for 4 weeks. Again, there was no difference in the time course of change in renal function between the two groups.

[2H][2H] [H2 gas, Molecular hydrogen (H2)]
paraSNA (HF/LF+HF) ratio (autonomic nerve function; Week two compared to Week 1): increases | influence on the autonomic nerve function after the end of inhalation (autonomic nerve function; after the first week after the end of inhalation): disappeared | SNA (LF/HF) (autonomic nerve function; during inhalation of H2): decreases | time course of change in renal function between the two groups ([1]; 5/6 nephrectomy, 4 weeks of gas inhalation): no difference | blood pressure before inhalation compared to the control group ([1]; after Week 1 of daily inhalation, telemetry): began to decrease | difference in blood pressure between H2 and control groups when inhalation was stopped ([1]; after the first gas inhalation, telemetry): immediately disappeared | blood pressure in the first gas inhalation ([1]; first inhalation immediately after 5/6 nephrectomy, telemetry, N=3, P=0.04 vs control (125.6±4.7)): 117.4±1.8 mmHg | decrease in blood pressure with longer period of gas inhalation vs control 5/6 nephrectomy ([1]; inhalation from the day of 5/6 nephrectomy for 4 weeks, telemetry, P<0.05): greater decrease | difference in blood pressure between the two groups before the start of inhalation on Day 2 ([1]; telemetry, before inhalation, Day 2): no difference
